Assay [1] concerns the target T1, PKCζ (Homo sapiens, UniProt Q05513).
T1 sequence (Q05513 1-592): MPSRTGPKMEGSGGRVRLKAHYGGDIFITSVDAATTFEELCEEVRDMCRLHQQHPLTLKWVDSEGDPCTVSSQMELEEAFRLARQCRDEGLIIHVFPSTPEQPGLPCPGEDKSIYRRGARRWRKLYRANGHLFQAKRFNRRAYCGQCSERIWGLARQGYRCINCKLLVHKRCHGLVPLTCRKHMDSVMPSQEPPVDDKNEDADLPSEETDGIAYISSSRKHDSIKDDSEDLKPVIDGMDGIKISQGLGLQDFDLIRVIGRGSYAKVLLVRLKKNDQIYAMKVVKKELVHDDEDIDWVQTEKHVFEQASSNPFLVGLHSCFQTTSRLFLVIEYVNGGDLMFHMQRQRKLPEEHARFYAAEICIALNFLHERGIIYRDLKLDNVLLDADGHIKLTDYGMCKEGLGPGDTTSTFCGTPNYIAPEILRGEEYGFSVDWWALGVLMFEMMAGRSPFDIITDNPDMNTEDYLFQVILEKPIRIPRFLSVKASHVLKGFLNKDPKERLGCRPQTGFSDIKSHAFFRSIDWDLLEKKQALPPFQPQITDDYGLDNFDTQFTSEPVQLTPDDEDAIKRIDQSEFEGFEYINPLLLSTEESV
As to the kind of experiment: PKC ζ screen, IC50 and Ki determination (Example 2). Format: biochemical. Set-up: purchased Panvera. The following applies: relative to most potently inhibited isoform (=1): δ for F, ζ for G. The method, then: (§1) Protein Kinase C Assays. The peptides […] (for PKC α, β and γ) and […] (for PKC δ, ε, θ, η, τ, and ζ) were used as substrates. […] Total reaction volume in each well was 50 μL. […] Following an additional 5 min incubation at ambient temperature, 75 μL from each reaction well was transferred into each well of a Unifilter (P81 cellulose phosphate paper) assay plate and washed four times with 0.1% phosphoric acid in water. […] Lead compounds from the library were combined into a single 96 well plate and re-assayed as described above in order to identify the best inhibitor. IC50 determinations of resynthesized inhibitor leads for individual PKC isoforms. Assays were performed in triplicate at pH 7.5 and thermostatically maintained at 30° C. using a Boekel constant temperature device. […] The IC50 values for pure compounds as inhibitors were calculated based on the experimental data using GraFit (Erithacus Software Limited). Protein kinase C δ, ε, θ, and η: As described for PKC α, β, and γ except that the assay was performed in the absence of CaCl2. Protein kinase C τ and ζ: As described for PKC α, β, and γ except that the assay was performed in the absence of CaCl2 and DAG. […] Total reaction volume in each well was 50 μL. All the wells were tested in the same plate and each concentration was tested in triplicate. […] Double reciprocal plots were obtained at different concentrations of substrates. Ki values were calculated using Enzyme Kinetics, SigmaPlot (SPSS Inc.).

Assay [2] deals with T2, PKCε (Homo sapiens, UniProt Q02156).
T2 sequence (Q02156 1-737): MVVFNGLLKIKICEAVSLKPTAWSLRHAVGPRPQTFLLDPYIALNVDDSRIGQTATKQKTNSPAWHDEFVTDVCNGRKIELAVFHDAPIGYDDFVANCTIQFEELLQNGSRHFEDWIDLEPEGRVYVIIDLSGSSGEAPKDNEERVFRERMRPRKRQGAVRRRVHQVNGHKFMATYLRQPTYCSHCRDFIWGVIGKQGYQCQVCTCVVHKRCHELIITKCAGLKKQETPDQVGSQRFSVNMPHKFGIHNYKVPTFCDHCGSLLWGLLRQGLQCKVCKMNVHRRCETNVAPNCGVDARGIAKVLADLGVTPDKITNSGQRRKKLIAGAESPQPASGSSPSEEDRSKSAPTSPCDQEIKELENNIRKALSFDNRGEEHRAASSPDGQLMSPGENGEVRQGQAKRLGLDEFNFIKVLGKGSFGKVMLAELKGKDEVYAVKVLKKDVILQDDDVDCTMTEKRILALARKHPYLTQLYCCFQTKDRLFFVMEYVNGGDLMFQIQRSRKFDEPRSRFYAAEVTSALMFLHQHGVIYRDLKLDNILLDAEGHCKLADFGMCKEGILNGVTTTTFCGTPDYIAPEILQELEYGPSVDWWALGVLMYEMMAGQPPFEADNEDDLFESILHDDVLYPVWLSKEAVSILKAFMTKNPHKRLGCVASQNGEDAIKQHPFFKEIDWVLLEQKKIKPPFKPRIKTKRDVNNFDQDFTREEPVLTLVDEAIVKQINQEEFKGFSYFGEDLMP
The experiment in a line: IC50 determination for individual PKC isoforms (Example 2). Format: biochemical. Set-up: purchased Panvera. The following applies: relative to most potently inhibited isoform (=1): δ for F, ζ for G. On the procedure:
(§2) Protein Kinase C Assays. The peptides […] (for PKC α, β and γ) and […] (for PKC δ, ε, θ, η, τ, and ζ) were used as substrates. IC50 determinations of resynthesized inhibitor leads for individual PKC isoforms. Assays were performed in triplicate at pH 7.5 and thermostatically maintained at 30° C. using a Boekel constant temperature device. […] The IC50 values for pure compounds as inhibitors were calculated based on the experimental data using GraFit (Erithacus Software Limited). Protein kinase C δ, ε, θ, and η: As described for PKC α, β, and γ except that the assay was performed in the absence of CaCl2. Protein kinase C τ and ζ: As described for PKC α, β, and γ except that the assay was performed in the absence of CaCl2 and DAG.

The next assay concerns the target PKCη (Homo sapiens, UniProt P24723). The description is as above. Format: biochemical. Set-up: purchased Panvera. To be noted: relative to most potently inhibited isoform (=1): δ for F, ζ for G. The method, then: as §2
In another assay the target is PKCγ (Homo sapiens, UniProt P05129). The description is as above. It counts as biochemical. Details: purchased Panvera. The following applies: relative to most potently inhibited isoform (=1): δ for F, ζ for G. The method, then:
as §2

Another assay has as its target PKCθ (Homo sapiens, UniProt Q04759). Described as above. It counts as biochemical. Set-up: purchased Panvera. The following applies: relative to most potently inhibited isoform (=1): δ for F, ζ for G. The method, then:
as §2

The target in assay [3] is T3, PKCδ (Homo sapiens, UniProt Q05655). As to the kind of experiment: PKC δ screen, IC50 and Ki determination (Example 2). It counts as biochemical. Set-up: purchased Panvera. On the procedure: as §1
Assay [4] addresses T4, PKCα (Homo sapiens, UniProt P17252). The experiment in a line: IC50 determination for individual PKC isoforms (Example 2). It counts as biochemical. The following applies: relative to most potently inhibited isoform (=1): δ for F, ζ for G. On the procedure:
as §2

A further assay addresses T5, PKC βI (Homo sapiens, UniProt P05771).
T5 construct: purchased Panvera
Described as above. It counts as biochemical. The following applies: relative to most potently inhibited isoform (=1): δ for F, ζ for G. On the procedure:
as §2

The target in another assay is T6, PKC ι (Homo sapiens, UniProt P41743).
T6 construct: purchased Panvera
T6 sequence (P41743 1-596): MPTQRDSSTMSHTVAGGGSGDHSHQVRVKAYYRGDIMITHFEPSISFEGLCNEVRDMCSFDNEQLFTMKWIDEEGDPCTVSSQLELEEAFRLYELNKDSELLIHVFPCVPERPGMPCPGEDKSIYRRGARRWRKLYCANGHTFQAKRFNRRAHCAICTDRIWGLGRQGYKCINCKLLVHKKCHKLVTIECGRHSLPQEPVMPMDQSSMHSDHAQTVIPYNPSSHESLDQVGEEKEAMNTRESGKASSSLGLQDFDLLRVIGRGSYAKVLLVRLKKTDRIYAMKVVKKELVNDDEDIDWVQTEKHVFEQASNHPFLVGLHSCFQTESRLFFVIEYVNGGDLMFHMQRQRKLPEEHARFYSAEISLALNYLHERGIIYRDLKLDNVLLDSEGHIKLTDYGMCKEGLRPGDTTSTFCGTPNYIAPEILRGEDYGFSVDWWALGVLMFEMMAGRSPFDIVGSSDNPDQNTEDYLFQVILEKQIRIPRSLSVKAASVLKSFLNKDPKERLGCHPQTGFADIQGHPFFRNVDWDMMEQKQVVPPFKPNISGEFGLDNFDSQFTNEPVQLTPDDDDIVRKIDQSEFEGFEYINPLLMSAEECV
Described as above. To be noted: relative to most potently inhibited isoform (=1): δ for F, ζ for G; text prints τ. Format: biochemical. The method, then: as §2

Assay [5] deals with T1, PKCζ. Details: purchased Panvera. To be noted: literature values; relative to most potently inhibited isoform (=1); cited from earlier work.
Assay [6] concerns the target T2, PKCε. Details: purchased Panvera. To be noted: literature values; relative to most potently inhibited isoform (=1); cited from earlier work.
Another assay has as its target PKC β1 (Homo sapiens, UniProt P05771). The following applies: literature values; relative to most potently inhibited isoform (=1); cited from earlier work.
The target of assay [7] is T4, PKCα. To be noted: cited from earlier work.
Assay [8] deals with T3, PKCδ. Set-up: purchased Panvera. To be noted: literature values; relative to most potently inhibited isoform (=1); cited from earlier work.

The text below walks through data of patent publication US20070254312A1, “Protein Kinase Inhibitors and Methods for Identiying Same” (priority 2004, published 2007).

Structures are written as SMILES. Where two headings read alike, the source gives them in different places. Starred links: 1 amine or outer side, 2 acyl side, 3 side chain; linkers in the order of their positions; H or OH if unused. Non-standard residues stand in square brackets, D forms with d. Residues, ends and D or L forms follow the SMILES beside them. Groups on a side chain read outwards from the residue. *: point of attachment. X1 = N=C(N)NCCC[C@@H](C(=O)[*:2])N(Cc1cccc(O)c1O)[*:1]; Benzoyl(4-NO2) = O=C(c1ccc([N+](=O)[O-])cc1)*; Cysteamide = C(CS[*:3])N[*:1]; Dap = NC[C@H](N)C(=O)O

T3 sequence (Q05655 whole entry, canonical isoform): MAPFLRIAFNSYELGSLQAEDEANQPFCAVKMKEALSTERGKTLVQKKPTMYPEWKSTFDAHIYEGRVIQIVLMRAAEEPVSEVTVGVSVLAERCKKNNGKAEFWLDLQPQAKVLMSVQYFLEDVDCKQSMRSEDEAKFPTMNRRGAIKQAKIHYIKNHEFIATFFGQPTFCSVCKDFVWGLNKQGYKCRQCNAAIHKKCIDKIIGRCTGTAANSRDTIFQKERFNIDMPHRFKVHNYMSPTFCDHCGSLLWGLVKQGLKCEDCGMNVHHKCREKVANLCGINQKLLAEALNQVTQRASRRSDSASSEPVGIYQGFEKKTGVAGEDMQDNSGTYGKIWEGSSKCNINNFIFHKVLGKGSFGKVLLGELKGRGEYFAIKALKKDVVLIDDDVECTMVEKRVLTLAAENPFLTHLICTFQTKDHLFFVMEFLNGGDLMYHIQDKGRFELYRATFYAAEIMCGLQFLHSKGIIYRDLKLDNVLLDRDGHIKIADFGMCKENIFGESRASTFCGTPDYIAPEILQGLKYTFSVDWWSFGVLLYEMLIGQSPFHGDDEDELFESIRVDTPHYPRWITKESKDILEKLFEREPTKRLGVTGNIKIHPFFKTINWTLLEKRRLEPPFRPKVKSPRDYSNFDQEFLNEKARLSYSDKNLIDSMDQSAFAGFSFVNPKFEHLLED
T5 sequence (P05771 whole entry): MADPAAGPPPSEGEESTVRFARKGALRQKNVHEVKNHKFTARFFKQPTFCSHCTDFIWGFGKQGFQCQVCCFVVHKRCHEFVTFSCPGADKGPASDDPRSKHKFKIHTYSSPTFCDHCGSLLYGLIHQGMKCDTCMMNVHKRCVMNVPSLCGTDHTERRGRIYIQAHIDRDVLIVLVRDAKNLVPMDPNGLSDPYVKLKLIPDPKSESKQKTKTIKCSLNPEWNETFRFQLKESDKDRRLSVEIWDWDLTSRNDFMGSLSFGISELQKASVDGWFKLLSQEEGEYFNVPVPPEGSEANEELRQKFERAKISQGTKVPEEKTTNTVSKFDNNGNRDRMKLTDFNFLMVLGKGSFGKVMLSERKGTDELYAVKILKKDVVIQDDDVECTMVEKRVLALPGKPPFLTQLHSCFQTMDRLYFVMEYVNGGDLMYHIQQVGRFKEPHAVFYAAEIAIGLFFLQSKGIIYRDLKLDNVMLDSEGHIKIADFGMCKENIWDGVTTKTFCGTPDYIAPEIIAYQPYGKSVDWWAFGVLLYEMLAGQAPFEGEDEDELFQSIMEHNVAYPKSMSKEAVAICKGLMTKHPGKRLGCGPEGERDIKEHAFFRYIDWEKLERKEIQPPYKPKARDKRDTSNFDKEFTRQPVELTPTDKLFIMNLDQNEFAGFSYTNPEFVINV
PKC β1, sequence (P05771 whole entry, canonical isoform): as the sequence (P05771 whole entry) above
PKCθ, sequence (Q04759 whole entry, canonical isoform): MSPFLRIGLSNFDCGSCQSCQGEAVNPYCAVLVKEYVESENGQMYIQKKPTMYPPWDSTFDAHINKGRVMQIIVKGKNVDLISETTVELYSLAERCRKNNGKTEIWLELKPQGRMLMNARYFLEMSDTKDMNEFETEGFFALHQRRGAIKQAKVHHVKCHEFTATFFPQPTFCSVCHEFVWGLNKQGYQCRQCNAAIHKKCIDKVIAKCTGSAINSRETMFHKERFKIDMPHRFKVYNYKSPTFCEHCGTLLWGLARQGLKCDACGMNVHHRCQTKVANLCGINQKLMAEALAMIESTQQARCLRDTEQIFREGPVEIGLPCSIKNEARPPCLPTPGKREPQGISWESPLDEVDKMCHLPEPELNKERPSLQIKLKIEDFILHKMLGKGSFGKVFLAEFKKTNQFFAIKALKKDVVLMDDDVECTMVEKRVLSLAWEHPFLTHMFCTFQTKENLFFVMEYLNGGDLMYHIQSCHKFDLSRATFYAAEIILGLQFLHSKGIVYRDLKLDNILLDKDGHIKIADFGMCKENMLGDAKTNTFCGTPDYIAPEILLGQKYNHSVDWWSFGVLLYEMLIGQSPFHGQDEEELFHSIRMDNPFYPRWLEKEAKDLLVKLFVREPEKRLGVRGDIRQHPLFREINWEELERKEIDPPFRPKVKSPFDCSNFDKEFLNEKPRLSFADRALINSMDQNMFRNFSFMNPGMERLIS
PKCη, sequence (P24723 whole entry, canonical isoform): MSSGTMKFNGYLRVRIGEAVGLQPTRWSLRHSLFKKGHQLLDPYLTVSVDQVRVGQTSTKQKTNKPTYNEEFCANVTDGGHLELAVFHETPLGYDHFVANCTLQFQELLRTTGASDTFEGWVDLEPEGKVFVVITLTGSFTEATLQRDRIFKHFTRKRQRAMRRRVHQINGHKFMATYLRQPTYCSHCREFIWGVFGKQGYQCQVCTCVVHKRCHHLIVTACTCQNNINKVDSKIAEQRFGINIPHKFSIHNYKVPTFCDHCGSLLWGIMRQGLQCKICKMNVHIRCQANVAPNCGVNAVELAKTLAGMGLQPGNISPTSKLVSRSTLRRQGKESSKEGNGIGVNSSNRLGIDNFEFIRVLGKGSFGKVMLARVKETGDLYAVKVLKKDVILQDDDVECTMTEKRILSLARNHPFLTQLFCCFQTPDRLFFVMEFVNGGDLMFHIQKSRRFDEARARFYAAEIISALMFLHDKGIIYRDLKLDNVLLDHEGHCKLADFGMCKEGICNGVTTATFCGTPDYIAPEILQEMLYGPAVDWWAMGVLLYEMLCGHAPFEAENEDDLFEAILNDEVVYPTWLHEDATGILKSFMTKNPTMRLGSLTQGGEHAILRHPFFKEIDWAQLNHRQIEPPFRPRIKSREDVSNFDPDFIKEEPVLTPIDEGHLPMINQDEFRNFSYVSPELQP

Take `CSCC[C@H](NC(=O)[C@H](Cc1ccccc1)NC(=O)[C@H](CNC(=O)CNC(=O)c1ccc([N+](=O)[O-])cc1)NC(=O)CNC(=O)[C@H](CCC(N)=O)NC(=O)[C@H](CCCNC(=N)N)NC(=O)[C@H](CCCNC(=N)N)NCc1cccc(O)c1O)C(=O)N[C@@H](Cc1ccc(O)cc1)C(=O)N[C@@H](Cc1ccccc1)C(=O)NCCS` [Compound F] (H-[X1]RQG[Dap]([Gly-Benzoyl(4-NO2)])FMYF-Cysteamide): at PKCζ [1], the “Fold selectivity (IC50), PKC ζ” value is 200 fold. On PKCε [2], the “Fold selectivity (IC50), PKC ε” value worked out at 489 fold. The “Fold selectivity (IC50), PKC η” value at PKCη is reported as 683 fold. Also, the “Fold selectivity (IC50), PKC γ” value on PKCγ is recorded as 500 fold. For the same compound, at PKCθ, the “Fold selectivity (IC50), PKC θ” value was 761 fold. Also, at PKCδ [3], the IC50 came to 0.018 ± 0.002 µM. In addition, the “Fold selectivity (IC50), PKC δ” value on PKCδ [3] (relative to most potently inhibited isoform (=1): δ for F, ζ for G) worked out at 1 fold. Besides, the affinity at PKCδ [3] (versus peptide substrate) corresponds to a Ki of 8 ± 1 nM. Further, on PKCα [4], the “Fold selectivity (IC50), PKC α” value came out at 944 fold. For the same compound, at PKC βI, the “Fold selectivity (IC50), PKC β1” value is given as 172 fold. In addition, the “Fold selectivity (IC50), PKC ι” value at PKC ι is on record as 26 fold.
Regarding `CN(C)CCCn1cc(C2=C(c3c[nH]c4ccccc34)C(=O)NC2=O)c2ccccc21` [Gö6850], at PKCζ [5], the “Fold selectivity (IC50), PKC ζ” value is recorded as 690 fold. On PKCε [6], the “Fold selectivity (IC50), PKC ε” value is listed as 16 fold. Besides, the “Fold selectivity (IC50), PKC β1” value at PKC β1 is 2 fold. Further, the IC50 at PKCα [7] (literature value, read-out: IC50 of the most potently inhibited isoform, PKC α (in parentheses)) is 8.4 nM. Moreover, the “Fold selectivity (IC50), PKC α” value on PKCα [7] (literature values, relative to most potently inhibited isoform (=1)) is given as 1 fold. Besides, at PKCδ [8], the “Fold selectivity (IC50), PKC δ” value was 25 fold.
`CSCC[C@H](NC(=O)[C@H](Cc1ccccc1)NC(=O)[C@H](CNC(C)=O)NC(=O)CNC(=O)[C@H](CCC(N)=O)NC(=O)[C@H](CCCNC(=N)N)NC(=O)[C@H](CCCNC(=N)N)NC(C)=O)C(=O)N[C@@H](Cc1ccc(O)cc1)C(=O)N[C@@H](Cc1ccccc1)C(=O)NCCS` [Compound A] (Ac-RRQG[Dap](Ac)FMYF-Cysteamide) showed an IC50 against PKCδ [3] of 50 µM.

The IC50 is the point on the concentration scale where inhibition reaches its midpoint. For orientation: Ki means a dissociation constant, usually derived from enzyme kinetics or from competition with a known ligand. A lower Ki goes with tighter binding.
